Source: ChEMBL document CHEMBL5338735, “Designing Smaller, Synthetic, Functional Mimetics of Sulfated Glycosaminoglycans as Allosteric Modulators of Coagulation Factors” (J Med Chem, 2023)

Columns and labels:
[1] = target: Coagulation factor X (Homo sapiens) (UniProt P00742); experiment: Inhibition of human factor Xa assessed as fold change relative to basal value
Coagulation factor XI [2] = target: T1, Coagulation factor XI (Homo sapiens, UniProt P03951); experiment: Inhibition of human factor XIa
Prothrombin [3] = target: T2, Prothrombin (Homo sapiens, UniProt P00734); experiment: Inhibition of thrombin in human plasma assessed as maximal efficacy measured after 10 mins by chromogenic substrate hydrolysis assay relative to control; format: cell-free
Prothrombin [4] = target: T2, Prothrombin; experiment: Inhibition of thrombin in human plasma measured after 10 mins by chromogenic substrate hydrolysis assay; format: cell-free
Coagulation factor XI [5] = target: T1, Coagulation factor XI; experiment: Inhibition of human Factor XIa assessed as substrate hydrolysis measured by measuring residual activity after 10 mins by chromogenic substrate hydrolysis assay relative to control
Coagulation factor XI [6] = target: T1, Coagulation factor XI; experiment: Inhibition of human recombinant FXIa assessed as S-2366 hydrolysis

T1 sequence (P03951 19-387 limits assumed): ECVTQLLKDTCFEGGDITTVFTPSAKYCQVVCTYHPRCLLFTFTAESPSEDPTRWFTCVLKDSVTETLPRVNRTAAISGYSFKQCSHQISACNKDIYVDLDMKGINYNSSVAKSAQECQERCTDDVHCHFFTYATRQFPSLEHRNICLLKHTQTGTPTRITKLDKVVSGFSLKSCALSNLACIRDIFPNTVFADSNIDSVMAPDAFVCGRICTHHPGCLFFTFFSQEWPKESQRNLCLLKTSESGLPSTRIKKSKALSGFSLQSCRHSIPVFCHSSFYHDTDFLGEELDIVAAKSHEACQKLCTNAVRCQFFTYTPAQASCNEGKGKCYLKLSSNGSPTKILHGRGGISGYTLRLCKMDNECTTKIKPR
T1 sequence (P03951 388-625 limits assumed): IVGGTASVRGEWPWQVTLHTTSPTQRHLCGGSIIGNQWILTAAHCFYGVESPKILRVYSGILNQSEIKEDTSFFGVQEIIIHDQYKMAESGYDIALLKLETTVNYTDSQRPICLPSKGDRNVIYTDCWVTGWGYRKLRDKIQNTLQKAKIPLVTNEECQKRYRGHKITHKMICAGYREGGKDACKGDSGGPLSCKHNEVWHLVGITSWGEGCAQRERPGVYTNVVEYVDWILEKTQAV
Coagulation factor X (Homo sapiens), sequence (P00742 41-179 limits assumed): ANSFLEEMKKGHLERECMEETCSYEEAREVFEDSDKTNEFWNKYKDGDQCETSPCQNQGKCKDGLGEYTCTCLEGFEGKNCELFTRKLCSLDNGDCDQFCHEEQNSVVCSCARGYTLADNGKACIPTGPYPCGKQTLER
Coagulation factor X (Homo sapiens), sequence (P00742 235-488 limits assumed): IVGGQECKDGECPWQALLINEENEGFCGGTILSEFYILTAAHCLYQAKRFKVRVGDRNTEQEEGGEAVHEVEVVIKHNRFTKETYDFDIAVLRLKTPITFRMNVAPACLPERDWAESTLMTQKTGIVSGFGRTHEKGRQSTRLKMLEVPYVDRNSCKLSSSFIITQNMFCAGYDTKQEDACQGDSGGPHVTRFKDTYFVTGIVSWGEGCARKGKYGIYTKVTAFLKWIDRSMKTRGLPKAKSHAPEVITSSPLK

`O=S(=O)(O)Oc1cc2c(c(OS(=O)(=O)O)c1)C[C@H](OS(=O)(=O)O)[C@@H](c1ccc(OS(=O)(=O)O)c(OS(=O)(=O)O)c1)O2` showed a fold change (FC) [1] of 20.8.

`COc1cc(CCCS(=O)(=O)O)ccc1O[C@H](Cc1cccc(OC)c1O)CS(=O)(=O)O` showed an IC50 (Coagulation factor XI [2]) of 150 nM.

In the case of `O=c1oc2cc(OCCCCn3cc(COc4ccc(-c5oc(=O)c6c(Cl)cc(Cl)cc6c5-c5ccccc5)cc4)nn3)ccc2c(-c2ccccc2)c1-c1ccc(OS(=O)(=O)O)cc1`, the Efficacy (Prothrombin [3]) is reported as 47% and the IC50 (Prothrombin [4]) is reported as 180 nM.

Work on `O=S(=O)(O)Oc1cc2c(c(OS(=O)(=O)O)c1)C[C@@H](OS(=O)(=O)O)[C@@H](c1ccc(OS(=O)(=O)O)c(OS(=O)(=O)O)c1)O2` yielded a fold change (FC) [1] of 10.8.

Work on `Cc1ccc(C(=O)Nc2ccc(CP(=O)(O)O)cc2CP(=O)(O)O)cc1NC(=O)c1cccc(NC(=O)Nc2cccc(C(=O)Nc3cc(C(=O)Nc4ccc(CP(=O)(O)O)cc4CP(=O)(O)O)ccc3C)c2)c1` yielded an Activity (Coagulation factor XI [5]) of 68%.

Molecule `O=C(O[C@@H]1[C@H](OC(=O)c2cc(OS(=O)(=O)O)cc(OS(=O)(=O)O)c2)[C@@H](OC(=O)c2cc(OS(=O)(=O)O)cc(OS(=O)(=O)O)c2)[C@H](OC(=O)c2ccc(OS(=O)(=O)O)cc2OS(=O)(=O)O)[C@@H](OC(=O)c2cc(OS(=O)(=O)O)cc(OS(=O)(=O)O)c2)[C@H]1OC(=O)c1cc(OS(=O)(=O)O)cc(OS(=O)(=O)O)c1)c1cc(OS(=O)(=O)O)cc(OS(=O)(=O)O)c1` has an IC50 (Coagulation factor XI [6]) of 280 nM.

Work on `COc1cc2oc(C)c(C(=O)O)c2cc1OS(=O)(=O)O` yielded an IC50 (Coagulation factor XI [2]) of over 2000 nM.

For `O=C(Nc1ccc(C(=O)Nc2ccc(C(=O)Nc3ccc(S(=O)(=O)O)c4cc(S(=O)(=O)O)cc(S(=O)(=O)O)c34)cc2)cc1)Nc1ccc(C(=O)Nc2ccc(C(=O)Nc3ccc(S(=O)(=O)O)c4cc(S(=O)(=O)O)cc(S(=O)(=O)O)c34)cc2)cc1`, the Activity (Coagulation factor XI [5]) was over 90%.

With `COc1cc2oc(C)c(C(=O)OC(C)(C)C)c2cc1OCc1oc2cc(OC)c(OS(=O)(=O)O)cc2c1C(=O)OC(C)(C)C` the IC50 (Coagulation factor XI [2]) was 7300 nM.
